Source: patent US20250282799A1, “SUBSTITUTED PYRIDO[4,3-d]PYRIMIDINES AS KRAS MODULATORS” (Alterome Therapeutics, Inc., priority 2023, published 2025)

Test system: KRAS G12V dependent lung adenocarcinoma cell line, NCI-H441
Test: Cellular pERK (Thr202/Tyr204) FRET/HTRF assay
Type: cell-based
Details: Homo sapiens, NCI-H441, cellular pERK (Thr202/Tyr204) HTRF, NCI-H441 cells
How it was run: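 IC50 reflects inhibition of ERK1/2 Thr202/Tyr204 phosphorylation, quantified by HTRF after a 1 hr treatment of KRAS G12V-driven NCI-H441 cells. DMSO served as negative control.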

Question: `C#Cc1c(F)ccc2cc(N)cc(-c3ncc4c(N5CCOC[C@H]6[C@H](Cl)[C@H]65)nc(OC[C@@H]5CCCN5C)nc4c3F)c12` [Example 302, 4-(4-((1S,7S,8S)-8-chloro-5-oxa-2-azabicyclo[5.1.0]octan-2-yl)-8-fluoro-2-(((S)-1-methylpyrrolidin-2-yl)methoxy)pyrido[4,3-d]pyrimidin-7-yl)-5-ethynyl-6-fluoronaphthalen-2-amine] was tested. Which IC50 did it give?
Answer: < 50 nM

Question: `[2H]C([2H])(Oc1nc(N2CCOC[C@H]3[C@H](F)[C@H]32)c2cc(F)c(-c3cc(N)cc(C4CC4)c3C(F)(F)F)c(F)c2n1)[C@@]12CCCN1C[C@H](F)C2` [Example 163, 3-cyclopropyl-5-(6,8-difluoro-4-((1S,7S,8S)-8-fluoro-5-oxa-2-azabicyclo[5.1.0]octan-2-yl)-2-(((2R,7aS)-2-fluorotetrahydro-1H-pyrrolizin-7a(5H)-yl)methoxy-d2)quinazolin-7-yl)-4-(trifluoromethyl)aniline] was tested. Which IC50 did it give?
Answer: 500 to 10000 nM

Question: With `[2H]C([2H])(Oc1nc(N2CCC=C[C@H]3[C@H](F)[C@H]32)c2cnc(-c3cc(N)cc4ccc(F)c(C#C)c34)c(F)c2n1)[C@@]12CCCN1C[C@H](F)C2` [Example 150, 5-Ethynyl-6-fluoro-4-(8-fluoro-4-((1S,7R,8S)-8-fluoro-2-azabicyclo[5.1.0]oct-5-en-2-yl)-2-(((2R,7aS)-2-fluorotetrahydro-1H-pyrrolizin-7a(5H)-yl)methoxy-d2)pyrido[4,3-d]pyrimidin-7-yl)naphthalen-2-amine] as the compound, how does the IC50 read?
Answer: < 50 nM

Question: `C#Cc1c(F)ccc2cc(N)cc(-c3ncc4c(N5CCOC[C@H]6[C@H](F)[C@H]65)nc(OC[C@]56C[C@@]7(CN5CCC65CC5)CC7(F)F)nc4c3F)c12` (single isomer, unassigned) [Example 218] was tested. Which IC50 did it give?
Answer: < 50 nM

Question: Which IC50 does the source give for `C#Cc1c(F)ccc2cc(N)cc(-c3ncc4c(N5CCOC[C@H]6[C@H](F)[C@H]65)nc(OC[C@@]56CCCN5C[C@]5(C[C@H]5F)C6)nc4c3F)c12` (single isomer, unassigned) [Example 254] here?
Answer: < 50 nM

Question: For `Nc1cc(Cl)c(C(F)(F)F)c(-c2ncc3c(N4CCCC[C@H]5[C@H](F)[C@H]54)nc(OC[C@]45C/C(=C/F)CN4CCC54CC4)nc3c2F)c1` [Example 406, 3-chloro-5-(8-fluoro-4-((1S,7R,8S)-8-fluoro-2-azabicyclo[5.1.0]octan-2-yl)-2-(((R,Z)-6′-(fluoromethylene)tetrahydrospiro [cyclopropane-1,1′-pyrrolizin]-7a′(5′H)-yl)methoxy)pyrido[4,3-d]pyrimidin-7-yl)-4-(trifluoromethyl)aniline], which IC50 is on record?
Answer: < 50 nM

Question: Which IC50 does the source give for `Nc1cc(Cl)c(C(F)(F)F)c(-c2ncc3c(N4CCCC[C@@H]5[C@@H](F)[C@@H]54)nc(OC[C@@]45CCCN4C/C(=C/F)C5)nc3c2F)c1` [Example 372, 3-chloro-5-(8-fluoro-4-((1R,7S,8R)-8-fluoro-2-azabicyclo[5.1.0]octan-2-yl)-2-(((S,E)-2-(fluoromethylene)tetrahydro-1H-pyrrolizin-7a(5H)-yl)methoxy)pyrido[4,3-d]pyrimidin-7-yl)-4-(trifluoromethyl)aniline] here?
Answer: 500 to 10000 nM

Same assay, conditions: Homo sapiens, NCI-H441, pERK HTRF, NCI-H441 cells (KRAS G12V)

Question: `[2H]C([2H])(Oc1nc(N2CCCO[C@H]3C[C@H]32)c2c(OC)nc(-c3cc(O)cc4ccc(F)c(C#C)c34)c(F)c2n1)[C@@]12CCCN1C[C@H](F)C2` [Example 36, 4-(4-((1S,7R)-2-Oxa-6-azabicyclo[5.1.0]octan-6-yl)-8-fluoro-2-(((2R,7aS)-2-fluorotetrahydro-1H-pyrrolizin-7a(5H)-yl)methoxy-d2)-5-methoxypyrido[4,3-d]pyrimidin-7-yl)-5-ethynyl-6-fluoronaphthalen-2-ol] was tested. Which IC50 did it give?
Answer: < 50 nM

Question: How did the IC50 turn out when `[2H]C([2H])(Oc1nc(N2CCOC[C@@H]3[C@@H](F)[C@@H]32)c2cnc(-c3cccc4ccc(F)c(C#C)c34)c(F)c2n1)[C@@]12CCCN1C[C@H](F)C2` [Example 46, (1R,7R,8R)-2-(7-(8-ethynyl-7-fluoronaphthalen-1-yl)-8-fluoro-2-(((2R,7aS)-2-fluorotetrahydro-1H-pyrrolizin-7a(5H)-yl)methoxy-d2)pyrido[4,3-d]pyrimidin-4-yl)-8-fluoro-5-oxa-2-azabicyclo[5.1.0]octane] was run?
Answer: 500 to 10000 nM
